Experimental data published in PMC12670405, “Second-Generation AURKA-Targeting PROTACs: Structural Optimization toward in Vivo Degradation in Neuroblastoma” (Journal of Medicinal Chemistry, 2025).

Legend:
Test in all cases: KINOMEscan scanMAX
Type in all cases: binding
Settings in all cases: read-out: Percent Control
[1] = target: T1, JAK1(JH1domain-catalytic) (Homo sapiens, UniProt P23458)
T1 construct: JAK1(JH1domain-catalytic); purchased Eurofins Discovery (DiscoverX KINOMEscan scanMAX)
Protocol: (§1) The kinome-wide binding assay was performed by Eurofins Discovery using the scanMAX screening platform. More information can be found on the Eurofins Discovery Web site.

TAOK3 = target: T2, TAOK3 (Homo sapiens, UniProt Q9H2K8)
T2 construct: purchased Eurofins Discovery (DiscoverX KINOMEscan scanMAX)
Protocol: as §1

TAOK1 = target: T3, TAOK1 (Homo sapiens, UniProt Q7L7X3)
T3 construct: purchased Eurofins Discovery (DiscoverX KINOMEscan scanMAX)
T3 sequence (Q7L7X3 whole entry): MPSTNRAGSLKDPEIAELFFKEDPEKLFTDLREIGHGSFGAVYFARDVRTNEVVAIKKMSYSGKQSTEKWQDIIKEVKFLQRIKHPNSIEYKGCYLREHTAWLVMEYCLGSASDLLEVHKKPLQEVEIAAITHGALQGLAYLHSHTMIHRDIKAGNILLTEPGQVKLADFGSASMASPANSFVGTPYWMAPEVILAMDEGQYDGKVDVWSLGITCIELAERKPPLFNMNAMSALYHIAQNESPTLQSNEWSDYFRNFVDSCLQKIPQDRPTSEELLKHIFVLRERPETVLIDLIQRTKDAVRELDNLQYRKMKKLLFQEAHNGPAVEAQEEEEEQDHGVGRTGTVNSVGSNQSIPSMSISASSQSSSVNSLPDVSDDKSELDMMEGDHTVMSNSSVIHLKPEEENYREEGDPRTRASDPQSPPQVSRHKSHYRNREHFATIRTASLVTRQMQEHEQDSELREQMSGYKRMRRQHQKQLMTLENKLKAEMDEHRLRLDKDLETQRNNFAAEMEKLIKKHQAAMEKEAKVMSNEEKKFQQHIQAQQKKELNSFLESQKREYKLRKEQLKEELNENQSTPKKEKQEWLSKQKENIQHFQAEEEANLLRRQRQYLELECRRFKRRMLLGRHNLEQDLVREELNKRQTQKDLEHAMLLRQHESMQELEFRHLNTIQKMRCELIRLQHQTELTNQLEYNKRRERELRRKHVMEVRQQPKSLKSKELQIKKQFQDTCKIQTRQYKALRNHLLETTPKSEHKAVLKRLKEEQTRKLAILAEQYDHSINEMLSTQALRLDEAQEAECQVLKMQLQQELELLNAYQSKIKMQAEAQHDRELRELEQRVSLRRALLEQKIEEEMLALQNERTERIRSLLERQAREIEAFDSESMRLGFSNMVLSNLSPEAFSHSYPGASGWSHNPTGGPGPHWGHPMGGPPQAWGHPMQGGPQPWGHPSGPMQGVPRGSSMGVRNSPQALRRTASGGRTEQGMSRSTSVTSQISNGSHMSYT
Protocol: as §1

EGFR = target: T4, EGFR (Homo sapiens, UniProt P00533)
T4 construct: purchased Eurofins Discovery (DiscoverX KINOMEscan scanMAX)
Protocol: as §1

MYLK2 = target: T5, MYLK2 (Homo sapiens, UniProt Q9H1R3)
T5 construct: purchased Eurofins Discovery (DiscoverX KINOMEscan scanMAX)
Protocol: as §1

MEK6 = target: T6, MEK6 (Homo sapiens, UniProt P52564)
T6 construct: purchased Eurofins Discovery (DiscoverX KINOMEscan scanMAX)
Protocol: as §1

EPHA5 = target: T7, EPHA5 (Homo sapiens, UniProt P54756)
T7 construct: purchased Eurofins Discovery (DiscoverX KINOMEscan scanMAX)
Protocol: as §1

GAK = target: T8, GAK (Homo sapiens, UniProt O14976)
T8 construct: purchased Eurofins Discovery (DiscoverX KINOMEscan scanMAX)
Protocol: as §1

PRKD1 = target: T9, PRKD1 (Homo sapiens, UniProt Q15139)
T9 construct: purchased Eurofins Discovery (DiscoverX KINOMEscan scanMAX)
Protocol: as §1

CDK9 = target: T10, CDK9 (Homo sapiens, UniProt P50750)
T10 construct: purchased Eurofins Discovery (DiscoverX KINOMEscan scanMAX)
T10 sequence (P50750 whole entry): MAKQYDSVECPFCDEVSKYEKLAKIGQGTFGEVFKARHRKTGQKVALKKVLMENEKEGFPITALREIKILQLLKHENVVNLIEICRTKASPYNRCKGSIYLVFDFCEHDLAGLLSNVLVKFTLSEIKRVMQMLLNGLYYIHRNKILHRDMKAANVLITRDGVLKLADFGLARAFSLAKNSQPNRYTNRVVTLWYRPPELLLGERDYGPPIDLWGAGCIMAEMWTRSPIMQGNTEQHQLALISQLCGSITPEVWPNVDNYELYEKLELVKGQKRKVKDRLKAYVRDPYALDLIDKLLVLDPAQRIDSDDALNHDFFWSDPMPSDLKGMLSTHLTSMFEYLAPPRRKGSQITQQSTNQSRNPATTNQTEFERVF
Protocol: as §1

[2] = target: T11, ABL1(Q252H)-nonphosphorylated (Homo sapiens, UniProt P00519, Q252H)
T11 construct: purchased Eurofins Discovery (DiscoverX KINOMEscan scanMAX)
Protocol: as §1

FLT4 = target: T12, FLT4 (Homo sapiens, UniProt P35916)
T12 construct: purchased Eurofins Discovery (DiscoverX KINOMEscan scanMAX)
Protocol: as §1

ABL1-phosphorylated = target: T13, ABL1-phosphorylated (Homo sapiens, UniProt P00519)
T13 construct: purchased Eurofins Discovery (DiscoverX KINOMEscan scanMAX)
Protocol: as §1

SBK1 = target: T14, SBK1 (Homo sapiens, UniProt Q52WX2)
T14 construct: purchased Eurofins Discovery (DiscoverX KINOMEscan scanMAX)
Protocol: as §1

CTK = target: T15, CTK (Homo sapiens, UniProt P42679)
T15 construct: purchased Eurofins Discovery (DiscoverX KINOMEscan scanMAX)
T15 sequence (P42679 whole entry): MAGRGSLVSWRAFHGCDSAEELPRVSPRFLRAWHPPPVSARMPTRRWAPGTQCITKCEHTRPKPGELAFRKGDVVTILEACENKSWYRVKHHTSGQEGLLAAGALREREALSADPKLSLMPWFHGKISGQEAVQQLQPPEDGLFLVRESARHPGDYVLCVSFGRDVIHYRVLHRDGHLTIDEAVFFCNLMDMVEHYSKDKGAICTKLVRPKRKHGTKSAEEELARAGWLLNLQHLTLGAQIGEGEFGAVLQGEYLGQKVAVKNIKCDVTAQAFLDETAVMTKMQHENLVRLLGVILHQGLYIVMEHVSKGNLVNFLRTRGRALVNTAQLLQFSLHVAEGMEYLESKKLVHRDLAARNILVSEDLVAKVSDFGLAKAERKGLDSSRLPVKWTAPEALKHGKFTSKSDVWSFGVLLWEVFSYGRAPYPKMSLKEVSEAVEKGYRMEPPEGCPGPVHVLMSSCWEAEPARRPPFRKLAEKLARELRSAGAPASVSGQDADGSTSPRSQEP
Protocol: as §1

BUB1 = target: T16, BUB1 (Homo sapiens, UniProt O43683)
T16 construct: purchased Eurofins Discovery (DiscoverX KINOMEscan scanMAX)
T16 sequence (O43683 whole entry): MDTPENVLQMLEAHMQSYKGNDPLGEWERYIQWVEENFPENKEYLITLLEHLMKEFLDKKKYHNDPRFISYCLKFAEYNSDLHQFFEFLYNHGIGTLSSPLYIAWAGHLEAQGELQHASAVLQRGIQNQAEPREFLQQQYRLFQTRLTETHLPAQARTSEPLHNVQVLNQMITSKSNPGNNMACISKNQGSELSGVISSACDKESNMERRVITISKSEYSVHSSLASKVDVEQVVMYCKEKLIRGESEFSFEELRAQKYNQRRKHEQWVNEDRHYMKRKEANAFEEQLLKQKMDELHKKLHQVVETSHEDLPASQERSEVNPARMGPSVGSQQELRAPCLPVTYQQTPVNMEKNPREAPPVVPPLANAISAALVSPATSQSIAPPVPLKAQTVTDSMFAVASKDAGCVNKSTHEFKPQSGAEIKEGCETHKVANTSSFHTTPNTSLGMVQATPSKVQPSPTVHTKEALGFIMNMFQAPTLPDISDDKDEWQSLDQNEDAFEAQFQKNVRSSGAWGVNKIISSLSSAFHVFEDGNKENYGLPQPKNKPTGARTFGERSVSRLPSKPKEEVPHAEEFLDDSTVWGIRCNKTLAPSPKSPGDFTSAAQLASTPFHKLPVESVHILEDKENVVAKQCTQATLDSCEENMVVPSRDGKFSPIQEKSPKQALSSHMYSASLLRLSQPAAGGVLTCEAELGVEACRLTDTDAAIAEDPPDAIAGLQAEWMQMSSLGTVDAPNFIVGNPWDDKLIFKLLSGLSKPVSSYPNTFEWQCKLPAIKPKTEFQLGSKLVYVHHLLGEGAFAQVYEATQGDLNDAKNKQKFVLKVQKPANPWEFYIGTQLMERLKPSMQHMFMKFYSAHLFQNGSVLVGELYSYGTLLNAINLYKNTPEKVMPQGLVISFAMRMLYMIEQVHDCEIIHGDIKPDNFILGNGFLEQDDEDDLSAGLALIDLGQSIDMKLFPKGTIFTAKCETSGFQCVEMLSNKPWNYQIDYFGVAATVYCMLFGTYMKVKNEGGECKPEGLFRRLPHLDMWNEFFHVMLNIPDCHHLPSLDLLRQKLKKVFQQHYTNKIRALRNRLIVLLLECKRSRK
Protocol: as §1

PIK3CA(E545K) = target: T17, PIK3CA(E545K) (Homo sapiens, UniProt P42336, E545K)
T17 construct: purchased Eurofins Discovery (DiscoverX KINOMEscan scanMAX)
Protocol: as §1

DCAMKL3 = target: T18, DCAMKL3 (Homo sapiens, UniProt Q9C098)
T18 construct: purchased Eurofins Discovery (DiscoverX KINOMEscan scanMAX)
Protocol: as §1

WEE1 = target: T19, WEE1 (Homo sapiens, UniProt P30291)
T19 construct: purchased Eurofins Discovery (DiscoverX KINOMEscan scanMAX)
Protocol: as §1

ERBB4 = target: T20, ERBB4 (Homo sapiens, UniProt Q15303)
T20 construct: purchased Eurofins Discovery (DiscoverX KINOMEscan scanMAX)
Protocol: as §1

CAMK2G = target: T21, CAMK2G (Homo sapiens, UniProt Q13555)
T21 construct: purchased Eurofins Discovery (DiscoverX KINOMEscan scanMAX)
T21 sequence (Q13555 whole entry): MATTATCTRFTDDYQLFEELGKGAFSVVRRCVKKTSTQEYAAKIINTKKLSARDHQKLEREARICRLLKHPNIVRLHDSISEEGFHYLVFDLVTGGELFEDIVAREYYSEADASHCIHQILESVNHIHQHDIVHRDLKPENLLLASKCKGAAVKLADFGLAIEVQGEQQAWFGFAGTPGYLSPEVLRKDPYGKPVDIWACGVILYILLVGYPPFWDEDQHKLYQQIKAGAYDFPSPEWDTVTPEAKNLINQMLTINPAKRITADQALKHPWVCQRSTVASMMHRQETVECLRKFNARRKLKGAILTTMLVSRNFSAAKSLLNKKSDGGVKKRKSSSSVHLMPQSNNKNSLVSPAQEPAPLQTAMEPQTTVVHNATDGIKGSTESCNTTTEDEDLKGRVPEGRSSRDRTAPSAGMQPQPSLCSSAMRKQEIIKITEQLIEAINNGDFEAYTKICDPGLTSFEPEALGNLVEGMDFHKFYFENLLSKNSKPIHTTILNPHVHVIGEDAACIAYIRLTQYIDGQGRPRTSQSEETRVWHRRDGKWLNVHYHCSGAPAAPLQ
Protocol: as §1

TXK = target: T22, TXK (Homo sapiens, UniProt P42681)
T22 construct: purchased Eurofins Discovery (DiscoverX KINOMEscan scanMAX)
Protocol: as §1

[3] = target: T23, JAK3(JH1domain-catalytic) (Homo sapiens, UniProt P52333)
T23 construct: JAK3(JH1domain-catalytic); purchased Eurofins Discovery (DiscoverX KINOMEscan scanMAX)
Protocol: as §1

MEK3 = target: T24, MEK3 (Homo sapiens, UniProt P46734)
T24 construct: purchased Eurofins Discovery (DiscoverX KINOMEscan scanMAX)
Protocol: as §1

ADCK4 = target: T25, ADCK4 (Homo sapiens, UniProt Q96D53)
T25 construct: purchased Eurofins Discovery (DiscoverX KINOMEscan scanMAX)
Protocol: as §1

FLT3(K663Q) = target: T26, FLT3(K663Q) (Homo sapiens, UniProt P36888, K663Q)
T26 construct: purchased Eurofins Discovery (DiscoverX KINOMEscan scanMAX)
Protocol: as §1

PLK4 = target: T27, PLK4 (Homo sapiens, UniProt O00444)
T27 construct: purchased Eurofins Discovery (DiscoverX KINOMEscan scanMAX)
Protocol: as §1

MKNK2 = target: T28, MKNK2 (Homo sapiens, UniProt Q9HBH9)
T28 construct: purchased Eurofins Discovery (DiscoverX KINOMEscan scanMAX)
Protocol: as §1

IRAK4 = target: T29, IRAK4 (Homo sapiens, UniProt Q9NWZ3)
T29 construct: purchased Eurofins Discovery (DiscoverX KINOMEscan scanMAX)
Protocol: as §1

EPHB3 = target: T30, EPHB3 (Homo sapiens, UniProt P54753)
T30 construct: purchased Eurofins Discovery (DiscoverX KINOMEscan scanMAX)
Protocol: as §1

PYK2 = target: T31, PYK2 (Homo sapiens, UniProt Q14289)
T31 construct: purchased Eurofins Discovery (DiscoverX KINOMEscan scanMAX)
Protocol: as §1

MARK4 = target: T32, MARK4 (Homo sapiens, UniProt Q96L34)
T32 construct: purchased Eurofins Discovery (DiscoverX KINOMEscan scanMAX)
T32 sequence (Q96L34 whole entry): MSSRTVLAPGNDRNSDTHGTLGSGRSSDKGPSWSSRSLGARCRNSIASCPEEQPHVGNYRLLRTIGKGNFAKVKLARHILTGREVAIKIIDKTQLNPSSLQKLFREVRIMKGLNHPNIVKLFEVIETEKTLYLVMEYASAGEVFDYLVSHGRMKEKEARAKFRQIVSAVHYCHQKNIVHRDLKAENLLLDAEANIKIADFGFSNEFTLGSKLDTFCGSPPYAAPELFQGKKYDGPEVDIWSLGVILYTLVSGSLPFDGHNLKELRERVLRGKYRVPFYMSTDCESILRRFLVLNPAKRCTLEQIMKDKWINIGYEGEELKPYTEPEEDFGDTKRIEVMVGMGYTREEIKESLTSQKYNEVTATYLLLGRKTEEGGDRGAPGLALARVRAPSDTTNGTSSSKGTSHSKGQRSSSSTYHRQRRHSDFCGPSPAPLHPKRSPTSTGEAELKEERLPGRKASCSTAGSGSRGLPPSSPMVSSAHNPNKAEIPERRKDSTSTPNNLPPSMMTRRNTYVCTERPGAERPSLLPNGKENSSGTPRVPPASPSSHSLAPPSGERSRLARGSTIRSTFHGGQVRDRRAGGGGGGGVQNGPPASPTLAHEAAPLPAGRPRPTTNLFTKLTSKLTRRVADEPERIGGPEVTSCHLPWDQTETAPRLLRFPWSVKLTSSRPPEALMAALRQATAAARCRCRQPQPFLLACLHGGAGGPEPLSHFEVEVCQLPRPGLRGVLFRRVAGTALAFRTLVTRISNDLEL
Protocol: as §1

CLK1 = target: T33, CLK1 (Homo sapiens, UniProt P49759)
T33 construct: purchased Eurofins Discovery (DiscoverX KINOMEscan scanMAX)
T33 sequence (P49759 whole entry): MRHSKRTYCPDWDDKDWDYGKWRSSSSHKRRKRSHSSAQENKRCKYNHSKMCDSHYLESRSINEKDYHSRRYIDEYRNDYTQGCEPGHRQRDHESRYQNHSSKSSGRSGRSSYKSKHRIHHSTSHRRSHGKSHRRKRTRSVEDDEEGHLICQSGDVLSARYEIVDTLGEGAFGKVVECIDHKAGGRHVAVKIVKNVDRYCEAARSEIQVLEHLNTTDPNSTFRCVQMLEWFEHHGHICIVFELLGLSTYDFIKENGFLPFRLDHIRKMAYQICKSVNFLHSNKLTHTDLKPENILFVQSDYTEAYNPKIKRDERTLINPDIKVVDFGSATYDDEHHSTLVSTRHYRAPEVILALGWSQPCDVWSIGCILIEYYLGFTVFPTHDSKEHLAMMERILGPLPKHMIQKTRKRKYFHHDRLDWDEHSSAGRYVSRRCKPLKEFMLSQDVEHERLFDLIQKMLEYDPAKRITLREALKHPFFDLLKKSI
Protocol: as §1

Compound: Cc1cc(Nc2ccc(F)c(CC3(C(=O)N4CCC(F)(CN5CCN(c6ccc(N7CCC(=O)NC7=O)cn6)CC5)CC4)CCN(Cc4cccc(Cl)c4F)CC3)n2)n[nH]1 [SK5527]
- remaining binding at 0.1 µM ([1]; 100 nM): 82%
- remaining binding at 1 µM ([1]; 1000 nM): 93%
- remaining binding at 0.1 µM (TAOK3; 100 nM): 100%
- remaining binding at 1 µM (TAOK3; 1000 nM): 100%
- remaining binding at 0.1 µM (TAOK1; 100 nM): 79%
- remaining binding at 1 µM (TAOK1; 1000 nM): 88%
- remaining binding at 0.1 µM (EGFR; 100 nM): 91%
- remaining binding at 1 µM (EGFR; 1000 nM): 82%
- remaining binding at 0.1 µM (MYLK2; 100 nM): 100%
- remaining binding at 1 µM (MYLK2; 1000 nM): 100%
- remaining binding at 0.1 µM (MEK6; 100 nM): 100%
- remaining binding at 1 µM (MEK6; 1000 nM): 94%
- remaining binding at 0.1 µM (EPHA5; 100 nM): 100%
- remaining binding at 1 µM (EPHA5; 1000 nM): 93%
- remaining binding at 0.1 µM (GAK; 100 nM): 88%
- remaining binding at 1 µM (GAK; 1000 nM): 99%
- remaining binding at 0.1 µM (PRKD1; 100 nM): 100%
- remaining binding at 1 µM (PRKD1; 1000 nM): 100%
- remaining binding at 0.1 µM (CDK9; 100 nM): 90%
- remaining binding at 1 µM (CDK9; 1000 nM): 97%
- remaining binding at 0.1 µM ([2]; 100 nM): 63%
- remaining binding at 1 µM ([2]; 1000 nM): 15%
- remaining binding at 0.1 µM (FLT4; 100 nM): 76%
- remaining binding at 1 µM (FLT4; 1000 nM): 40%
- remaining binding at 0.1 µM (ABL1-phosphorylated; 100 nM): 67%
- remaining binding at 1 µM (ABL1-phosphorylated; 1000 nM): 48%
- remaining binding at 0.1 µM (SBK1; 100 nM): 86%
- remaining binding at 1 µM (SBK1; 1000 nM): 64%
- remaining binding at 0.1 µM (CTK; 100 nM): 100%
- remaining binding at 1 µM (CTK; 1000 nM): 91%
- remaining binding at 0.1 µM (BUB1; 100 nM): 100%
- remaining binding at 1 µM (BUB1; 1000 nM): 100%
- remaining binding at 0.1 µM (PIK3CA(E545K); 100 nM): 93%
- remaining binding at 1 µM (PIK3CA(E545K); 1000 nM): 71%
- remaining binding at 0.1 µM (DCAMKL3; 100 nM): 100%
- remaining binding at 1 µM (DCAMKL3; 1000 nM): 100%
- remaining binding at 0.1 µM (WEE1; 100 nM): 99%
- remaining binding at 1 µM (WEE1; 1000 nM): 87%
- remaining binding at 0.1 µM (ERBB4; 100 nM): 100%
- remaining binding at 1 µM (ERBB4; 1000 nM): 100%
- remaining binding at 0.1 µM (CAMK2G; 100 nM): 100%
- remaining binding at 1 µM (CAMK2G; 1000 nM): 100%
- remaining binding at 0.1 µM (TXK; 100 nM): 75%
- remaining binding at 1 µM (TXK; 1000 nM): 78%
- remaining binding at 0.1 µM ([3]; 100 nM): 100%
- remaining binding at 1 µM ([3]; 1000 nM): 80%
- remaining binding at 0.1 µM (MEK3; 100 nM): 100%
- remaining binding at 1 µM (MEK3; 1000 nM): 82%
- remaining binding at 0.1 µM (ADCK4; 100 nM): 92%
- remaining binding at 1 µM (ADCK4; 1000 nM): 84%
- remaining binding at 0.1 µM (FLT3(K663Q); 100 nM): 81%
- remaining binding at 1 µM (FLT3(K663Q); 1000 nM): 79%
- remaining binding at 0.1 µM (PLK4; 100 nM): 76%
- remaining binding at 1 µM (PLK4; 1000 nM): 29%
- remaining binding at 0.1 µM (MKNK2; 100 nM): 59%
- remaining binding at 1 µM (MKNK2; 1000 nM): 68%
- remaining binding at 0.1 µM (IRAK4; 100 nM): 87%
- remaining binding at 1 µM (IRAK4; 1000 nM): 70%
- remaining binding at 0.1 µM (EPHB3; 100 nM): 100%
- remaining binding at 1 µM (EPHB3; 1000 nM): 100%
- remaining binding at 0.1 µM (PYK2; 100 nM): 91%
- remaining binding at 1 µM (PYK2; 1000 nM): 66%
- remaining binding at 0.1 µM (MARK4; 100 nM): 100%
- remaining binding at 1 µM (MARK4; 1000 nM): 100%
- remaining binding at 0.1 µM (CLK1; 100 nM): 92%
- remaining binding at 1 µM (CLK1; 1000 nM): 77%
